According to patent publication US20240148821A1, “PHARMACEUTICAL USE OF CYCLIC PEPTIDE COMPOUND” (CHUGAI SEIYAKU KABUSHIKI KAISHA, priority 2021, published 2024):
Numbered stars: 1 amine (or outer) side, 2 acyl side, 3 side chain; on linkers, the order of the positions; unused ones are H or OH. Bridge positions count the residues as written; N and C are the ends. Square brackets hold non-standard residues; d marks the D form. Peptide text beside a SMILES is read from it. * marks the point of attachment. hPhe(3,5-F2-4-CF3) = N[C@@H](CCc1cc(F)c(C(F)(F)F)c(F)c1)C(=O)O; hPhe(3-Cl-4-CF3) = N[C@@H](CCc1ccc(C(F)(F)F)c(Cl)c1)C(=O)O; NEtPhe(4-CF3) = CCN[C@@H](Cc1ccc(C(F)(F)F)cc1)C(=O)O; NMePhe(4-CF3) = CN[C@@H](Cc1ccc(C(F)(F)F)cc1)C(=O)O; hPhe(4-CF3) = N[C@@H](CCc1ccc(C(F)(F)F)cc1)C(=O)O; 3Oxa8azabicyclo(3.2.1)octane = C1CC2COCC1N2*; NMePhe(4-Cl) = CN[C@@H](Cc1ccc(Cl)cc1)C(=O)O; NMedβ3hAla = C[C@H](CC(=O)[*:2])N(C)[*:1]; NMeGly(cPent) = CN[C@H](C(=O)O)C1CCCC1; Phe(3-I) = N[C@@H](Cc1cccc(I)c1)C(=O)O; Pro(4,4-F2) = O=C(O)[C@@H]1CC(F)(F)CN1; NMeCha = CN[C@@H](CC1CCCCC1)C(=O)O; cisHyp = O=C(O)[C@@H]1C[C@H](O)CN1; Hyp = O=C(O)[C@@H]1C[C@@H](O)CN1; NMeAhp(2) = CCCCC[C@H](NC)C(=O)O; NMeF = CN[C@@H](Cc1ccccc1)C(=O)O; NMeD = CN[C@@H](CC(=O)O)C(=O)O; NMeL = CN[C@@H](CC(C)C)C(=O)O; NMeNle = CCCC[C@H](NC)C(=O)O; NMeV = CN[C@H](C(=O)O)C(C)C; d(β3hA) = C[C@@H](N)CC(=O)O; NMeS = CN[C@@H](CO)C(=O)O; NMeA = CN[C@@H](C)C(=O)O; Piperidide = C1CCN(*)CC1; Ac5c = NC1(C(=O)O)CCCC1; Aze = O=C(O)[C@@H]1CCN1; Ac4c = NC1(C(=O)O)CCC1; Sar = CNCC(=O)O; Propyl = CCC*

What follows are molecules tested against protein-protein interaction between Kras and SOS1 (biotin-tagged human Kras loaded with GDP, His-tagged human SOS1) (Homo sapiens (Human), UniProt P01116, G12D) (assay: Protein-protein interaction inhibition between Kras and SOS1 (KrasG12D-SOS PPI) using AlphaScreen). Details: AlphaScreen; biotin-tagged human Kras loaded with GDP, His-tagged human SOS1; read-out: KRAS G12D-SOS PPI IC50.
Type: biochemical
With CCCC[C@H]1C(=O)N2CC[C@H]2C(=O)N(C)[C@@H](CC2CCCCC2)C(=O)N(C)CC(=O)N[C@@H](CCc2ccc(C(F)(F)F)c(Cl)c2)C(=O)N2CCC[C@H]2C(=O)NC2(CCCC2)C(=O)N(C)[C@@H](C(C)C)C(=O)N(C)[C@H](C(=O)N2CCCCC2)CC(=O)N(C)[C@@H](CC(C)C)C(=O)N[C@@H]([C@@H](C)CC)C(=O)N1C [Compound 1596] ([NMeL]I[NMeNle][Aze][NMeCha][Sar][hPhe(3-Cl-4-CF3)]P[Ac5c][NMeV][NMeD]-Piperidide; lactam N-11) the IC50 was 23 nM.
In the case of CCO[C@@H]1C[C@H]2C(=O)NC3(CCCC3)C(=O)N(C)[C@@H](C3CCCC3)C(=O)N(C)[C@H](C)CC(=O)N(C)[C@@H](CC(C)C)C(=O)N[C@@H]([C@@H](C)CC)C(=O)N(C)CC(=O)N(C)CC(=O)N(C)[C@@H](CC3CCCCC3)C(=O)N(C)CC(=O)N[C@@H](CCc3cc(F)c(C(F)(F)F)c(F)c3)C(=O)N2C1 [Compound 74] (cyclo([Ac5c][NMeGly(cPent)][NMedβ3hAla][NMeL]I[Sar][Sar][NMeCha][Sar][hPhe(3,5-F2-4-CF3)][Hyp](Et))), the IC50 is reported as 7.2 nM.
For CCO[C@@H]1C[C@H]2C(=O)NC3(CCCC3)C(=O)N(C)[C@@H](C3CCCC3)C(=O)N(C)[C@H](C)CC(=O)N(C)[C@@H](CC(C)C)C(=O)N[C@@H]([C@@H](C)CC)C(=O)N(C)CC(=O)N(C)CC(=O)N(C)[C@@H](Cc3ccc(C(F)(F)F)cc3)C(=O)N(C)CC(=O)N[C@@H](CCc3ccc(C(F)(F)F)c(Cl)c3)C(=O)N2C1 [Compound 541] (cyclo([Ac5c][NMeGly(cPent)][NMedβ3hAla][NMeL]I[Sar][Sar][NMePhe(4-CF3)][Sar][hPhe(3-Cl-4-CF3)][Hyp](Et))), the IC50 was 4.3 nM.
Work on CC[C@H](C)[C@@H]1NC(=O)[C@H](C)N(C)C(=O)C[C@@H](C)NC(=O)[C@H](CC(C)C)N(C)C(=O)[C@H](Cc2ccccc2)N(C)C(=O)[C@H](CC(C)C)NC(=O)[C@H](Cc2cccc(I)c2)NC(=O)CN(C)C(=O)[C@H](Cc2ccc(Cl)cc2)N(C)C(=O)CN(C)C(=O)CN(C)C1=O [Compound 65] (cyclo(I[Sar][Sar][NMePhe(4-Cl)][Sar][Phe(3-I)]L[NMeF][NMeL][d(β3hA)][NMeA])) yielded an IC50 of 240 nM.
Molecule CCCCC[C@H]1C(=O)N[C@@H]([C@@H](C)CC)C(=O)N[C@@H](C)C(=O)N2CC[C@H]2C(=O)N(C)[C@@H](COCCC)C(=O)N(C)CC(=O)N[C@@H](CCc2ccc(C(F)(F)F)c(Cl)c2)C(=O)N2CCC[C@H]2C(=O)NC2(CCCC2)C(=O)N(C)[C@@H](C2CCCC2)C(=O)N(C)[C@H](C(=O)N2C3CCC2COC3)CC(=O)N1C [Compound 163] ([NMeAhp(2)]IA[Aze][NMeS](Propyl)[Sar][hPhe(3-Cl-4-CF3)]P[Ac5c][NMeGly(cPent)][NMeD]-{3Oxa8azabicyclo(3.2.1)octane}; lactam N-11) has an IC50 of 6.1 nM.
CC[C@H](C)[C@@H]1NC(=O)[C@H](C)N(C)C(=O)C[C@@H](C)NC(=O)[C@H](CC(C)C)N(C)C(=O)[C@H](Cc2ccccc2)N(C)C(=O)[C@@H]2C[C@H](O)CN2C(=O)[C@H](CCc2ccc(C(F)(F)F)cc2)NC(=O)CN(C)C(=O)[C@H](Cc2ccc(Cl)cc2)N(C)C(=O)CN(C)C(=O)CN(C)C1=O [Compound 1373] (cyclo(I[Sar][Sar][NMePhe(4-Cl)][Sar][hPhe(4-CF3)][cisHyp][NMeF][NMeL][d(β3hA)][NMeA])) gave an IC50 of 7.7 nM.
With CC[C@H](C)[C@@H]1NC(=O)[C@H](CC(C)C)N(C)C(=O)C[C@@H](C)N(C)C(=O)[C@H](C2CCCC2)N(C)C(=O)C2(CCC2)NC(=O)[C@@H]2CC(F)(F)CN2C(=O)[C@H](CCc2ccc(C(F)(F)F)c(Cl)c2)NC(=O)CN(C)C(=O)[C@H](Cc2ccc(C(F)(F)F)cc2)N(CC)C(=O)[C@@H]2CCN2C(=O)[C@H](C)N(C)C1=O [Compound 949] (cyclo([Ac4c][NMeGly(cPent)][NMedβ3hAla][NMeL]I[NMeA][Aze][NEtPhe(4-CF3)][Sar][hPhe(3-Cl-4-CF3)][Pro(4,4-F2)])) the IC50 was 1.3 nM.
Work on CC[C@H](C)[C@@H]1NC(=O)[C@H](CC(C)C)N(C)C(=O)C[C@@H](C(=O)N(C)C)NC(=O)[C@H](C2CCCC2)N(C)C(=O)C2(CCCC2)NC(=O)[C@@H]2CCCN2C(=O)[C@H](CCc2ccc(C(F)(F)F)c(Cl)c2)NC(=O)CN(C)C(=O)[C@H](CC2CCCCC2)N(C)C(=O)[C@@H]2CCN2C(=O)[C@H](C)N(C)C1=O [Compound 677] ([NMeL]I[NMeA][Aze][NMeCha][Sar][hPhe(3-Cl-4-CF3)]P[Ac5c][NMeGly(cPent)]D-NMe2; lactam N-11) yielded an IC50 of 4.1 nM.
